# Data reported in ChEMBL document CHEMBL3507680, “University of Dundee, Gates Library screen for HepG2 cell viability”.
# Assay: Human HepG2 cell viability assay in 384 well format
# Assay type: toxicity, cell-based
# Set-up: dose 125 nL, time 70.5 hour; cytotoxicity at 70.5 h: concentration not given beside the values
# Conditions: HepG2 cells, read-out: Inhibition
row,Compound,cytotoxicity at 70.5 h [%]
1,Cc1cc(C)nc(C2(C)CCCN2CCO)n1 (stereo unspecified),-0.984
2,Cc1ccc(Nc2nccc(C3CN(CC(N)=O)C3)n2)nc1,-1.76
3,CC1(C(=O)N2CCOCC2)CN(Cc2ccccn2)CCO1 (stereo unspecified),26.2
4,CCC(=O)N1CCCC(c2cc(Nc3ncccn3)nc(C)n2)C1 (stereo unspecified),-5.83
5,Cn1ccc2ccnc(CC3CN(C(=O)C4CCC(F)(F)CC4)C3)c21,3.02
6,COc1ccc(CN(C)CC2(O)CCN(C(=O)c3cccn3C)C2)cc1 (stereo unspecified),36.1
7,CNc1cc(C2CCCN2Cc2ccccc2OCC(=O)O)ccn1 (stereo unspecified),-5.11
8,CCn1cc(CN2CCc3nc(N4CCOCC4)nc(O)c3CC2)cn1,7.44
9,Cc1noc2nc(C3CCN(Cc4ccncc4)CC3)cc(C(F)F)c12,31.7
10,CN(C)C(=O)C1CN(Cc2c[nH]cn2)CCN(C2CCOCC2)C1 (stereo unspecified),-0.471
11,Cc1ccc(CC(=O)N(C)CC2(O)CCN(c3ccccn3)C2)s1 (stereo unspecified),-6.87
12,CC(=O)N1CCCC1c1cccc(Cc2ccccc2F)n1 (stereo unspecified),35.5
13,CC(=O)Nc1nc(C2CCN(CC(N)=O)CC2)cs1,-3.74
14,Clc1ccc(CN2CCC3(CC2)CC(c2cccnc2)=NO3)cc1,3.85
15,CN1CC(=O)N(c2ccccc2)Cc2c(NC3CC3)ncnc21,0.416
16,Cc1ccc2nc(C3CCN(CC(C)C)CC3)nc(O)c2c1,-6.3
17,CC(C)C1=NOC2(CCN(C(=O)C3CCCC3)CC2)C1,-11.9
18,COc1ccccc1-c1cc(C(=O)N(C)C)nc2c1cnn2C,-11.4
19,NCCC(=O)N1CCC2(CC1)CN(C(=O)Cc1cccc(Cl)c1)CCO2,-15.5
20,NCC(=O)N1CCC2(CC1)CN(C(=O)Cc1ccc(Cl)cc1)CCO2,-14.9
21,O=C(C1CCCC1)N1CC2(CCCN(C3COC3)C2)Cc2ccccc21 (stereo unspecified),-15.4
22,O=C(C1CCCC1)N1CC2(CCN(C3COC3)C2)Cc2ccccc21 (stereo unspecified),-10.8
23,CC(C)(C)c1nnc2n1C(C(=O)N1CCN(c3ncccn3)CC1)CC2 (stereo unspecified),-11.2
24,CC(C)(C)c1nnc2n1C(C(=O)N1CCOCC1)CC2 (stereo unspecified),-14.7

row,Compound,cytotoxicity at 70.5 h [%]
1,CC(C)(C)c1nnc2n1C(C(=O)N1CCCC1)CC2 (stereo unspecified),-12.7
2,O=C(N1CCCC1)N1CCn2c(nnc2C2CCCN2)C1 (stereo unspecified),-9.61
3,O=C(Nc1ccccc1)N1CCn2c(nnc2C2CCCN2)C1 (stereo unspecified),-9.71
4,CC(C)NC(=O)c1cc(-c2ccc(S(C)(=O)=O)cc2)nc2c1cnn2C,-13.7
5,Cc1cc(C(=O)NCC(F)(F)F)c2c(C3CCCN3)noc2n1 (stereo unspecified),-7.21
6,Cc1cc(C(=O)NCc2cccs2)c2c(C3CCCN3)noc2n1 (stereo unspecified),-6.49
7,O=C1CC2(CCN(C(=O)C3CCCCC3)C2)Nc2ccccc2N1 (stereo unspecified),-9.46
8,c1c[nH]c2nc(C3CCCNC3)nc-2c1 (stereo unspecified),-13.7
9,Cn1nc(C2CCCN2)c2c(C(=O)NCC(F)(F)F)cc(C3CC3)nc21 (stereo unspecified),17.1
10,CN(C)C(=O)c1nc(-c2ccc(S(C)(=O)=O)cc2)c2cnccn12,-6.88
11,CS(=O)(=O)c1ccc(-c2nc(C(=O)N3CCCC3)n3ccccc23)cc1,-8.24
12,CN(C)C(=O)N1CCN(c2ccc(Cl)nn2)C(=O)C1,-7.53
13,O=C(N1CCOCC1)N1CCN(c2ccc(Cl)nn2)C(=O)C1,-6.24
14,CC(C)C(=O)N1Cc2ccccc2CC2(CCCCN2C)C1 (stereo unspecified),-10.2
15,C[C@H](C(=O)N1Cc2ccccc2CC2(CCCN2C)C1)c1ccccc1 (stereo partly specified),-5.49
16,CS(=O)(=O)N1CC2(CCCN(C3COC3)C2)Cc2ccccc21 (stereo unspecified),-3.97
17,CS(=O)(=O)N1CC2(CCN(C3COC3)C2)Cc2ccccc21 (stereo unspecified),-4.95
18,CS(=O)(=O)N1CC2(CCCN(CC3CC3)C2)Cc2ccccc21 (stereo unspecified),-3.95
19,O=C1Nc2ccccc2CN(CC2CC2)C12CCNC2 (stereo unspecified),-3.48
20,O=C1NCc2ccccc2CC12CCN(Cc1ccncc1Cl)C2 (stereo unspecified),-3.37
21,O=C(c1ccc(Cl)s1)N1CCC2(COc3ncccc3S(=O)(=O)N2)C1 (stereo unspecified),-8.51
22,O=C(c1ccncc1)N1CCC2(COc3ncccc3S(=O)(=O)N2)C1 (stereo unspecified),-5.87
23,O=C(c1ccccn1)N1CCC2(COc3ncccc3S(=O)(=O)N2)C1 (stereo unspecified),-5.57
24,O=C(c1ccccn1)N1CCC2(CNS(=O)(=O)c3cnccc3O2)C1 (stereo unspecified),17.6

row,Compound,cytotoxicity at 70.5 h [%]
1,CC(=O)N1CCCCC1c1nnc2n1CCNC2 (stereo unspecified),17.5
2,CC(C)CCN1CCC2(CNS(=O)(=O)c3cccnc3O2)C1 (stereo unspecified),26.8
3,O=S1(=O)NCC2(CCN(Cc3ccc(Cl)s3)C2)Oc2ncccc21 (stereo unspecified),17.2
4,O=S1(=O)NCC2(CCN(Cc3ccncc3)CC2)Oc2ncccc21,23.1
5,CC(C)NC(=O)C1CCc2nnc(CNC(=O)c3cccnc3)n21 (stereo unspecified),-2
6,N#Cc1ccc(SCCC(=O)Nc2ccc(CC(N)=O)cc2)cc1,6.57
7,COC(=O)C1CN(Cc2cc(F)ccc2Br)CCO1 (stereo unspecified),-3.09
8,NC(=O)C(NC1CCN(CC2CCCCC2)CC1)c1ccc(F)cc1 (stereo unspecified),-9.96
9,N#Cc1ccc(SCCC(=O)NC(N)=O)cc1,-12.4
10,CSCCC(=O)N1CCN(CC(O)C(C)(C)C)CC1 (stereo unspecified),24.8
11,CCCS(=O)(=O)CC(=O)Nc1ccsc1,7.39
12,CS(=O)(=O)CCC(=O)Nc1ccsc1,-14.4
13,CCN(CC)S(=O)(=O)CC(=O)Nc1ccsc1,-14.5
14,CN1CCN(C(=O)C2(NC(N)=O)CCCCC2)Cc2ccccc21,-7.76
15,O=C(NC1CC1)c1cnc2n1CCCC2,6.87
16,N#CCc1ccc(NC(=O)N[C@H](CO)Cc2ccc(O)cc2)cc1,-9.07
17,Cc1ccc(CNc2ccn(CCC(N)=O)n2)c(Br)c1,8.15
18,COC(=O)[C@@H]1C[C@@H](O)CN1Cc1ccn(-c2ccc(F)cc2)n1,-10.3
19,CCC(C)(CC(=O)OC)NCc1c(C)noc1C (stereo unspecified),-4.55
20,CCc1ccc(C(=O)NC2CCCN(c3ccn(C)n3)C2=O)o1 (stereo unspecified),9.2
21,CN(Cc1cc(Br)cn1C)C(=O)Cc1cccc(O)c1,-3.37
22,COCCN1CCN(Cc2coc(-c3ccccc3Cl)n2)CC1,-10.2
23,CCN(CC(=O)NC)C(=O)c1sc(Cc2ccccc2)nc1C,-11.7
24,CCn1ccnc1CN1CCN(C(C)C)CC1C (stereo unspecified),-3.75

row,Compound,cytotoxicity at 70.5 h [%]
1,CCC1CN(CCNS(C)(=O)=O)c2ccccc2O1 (stereo unspecified),-2.49
2,CCC1CN(CCCNS(C)(=O)=O)c2ccccc2O1 (stereo unspecified),-4.06
3,CNC(=O)NC(=O)C(C)N1CCN(C2CCCC2)CC1 (stereo unspecified),-4.93
4,Cc1cc(C(=O)N2CCN(C(=O)CCC3CCCCC3)CC2)n(C)n1,-18.7
5,O=C(CS(=O)(=O)Cc1ccc(Br)cc1F)Nc1cn[nH]c1,4.02
6,Cc1ccc(F)cc1S(=O)(=O)NCc1cccc(CS(C)(=O)=O)c1,-6.95
7,O=C(Cn1cccn1)NCC1CCCN(Cc2ccccc2)C1 (stereo unspecified),-20.2
8,CCNC(=O)C(C)NC(=O)Nc1ccccc1Cl (stereo unspecified),-6.58
9,CS(=O)(=O)NC1CCN(C(=O)c2cc3ccccc3s2)C1 (stereo unspecified),-22.9
10,CCOC(=O)CN(CC(F)(F)F)C(=O)c1nc(C)n2ccccc12,-15.3
11,Cn1c(CCNC(=O)Nc2cn[nH]c2)nc2ccc(F)cc21,-1.73
12,CC(C)n1nccc1NC(=O)NCCc1nc2ccc(F)cc2n1C,-11
13,Cc1ccc(C(=O)NCC(O)c2ccc(Cl)s2)c(=O)[nH]1 (stereo unspecified),-23.1
14,Cc1cc(C(=O)NCC(O)c2ccc(Cl)s2)c(C)o1 (stereo unspecified),-10.3
15,O=c1[nH]c(C2CCOC2)nc2ccc(Br)cc12 (stereo unspecified),-2.39
16,O=S(=O)(N1CCN(CC2CC2)CC1)N1CCCC1c1ccco1 (stereo unspecified),-5.9
17,Cc1nc(CN2CCOC(c3ccc(Cl)cc3)C2)oc1C (stereo unspecified),-7.95
18,Cc1nc(CN2CCCC2Cn2ccnc2C(C)C)nc2ccccc12 (stereo unspecified),19.9
19,Cc1cc(C2CCCN(Cc3cccnc3)C2)n[nH]1 (stereo unspecified),47.5
20,CS(=O)(=O)NC1CCN(Cc2coc(-c3ccc(Cl)cc3)n2)CC1,7.7
21,CN(Cc1ccsc1)C(=O)c1nc(N2CCCC2)ncc1Cl,-6.35
22,O=C(c1nc(N2CCCC2)ncc1Cl)N1CCN(Cc2ccsc2)CC1,29
23,CC(C)CN1CCC(NC(=O)N(C)Cc2csc3ccccc23)CC1,-3.08
24,Cc1cc(C)n(C2CN(c3nc(-c4ccncc4)nc4c3CCC4)C2)n1,-8.99

row,Compound,cytotoxicity at 70.5 h [%]
1,O=C(Nc1ccccc1F)NC1(CO)CCOCC1,-12.1
2,CNC(=O)Cc1ccccc1NC(=O)N[C@H]1c2ccccc2C[C@H]1O,-13.7
3,CC(C)Oc1ccccc1CNC(=O)N(C)C(C)CS(C)(=O)=O (stereo unspecified),16.1
4,N#Cc1ccc(NCc2cccnc2N2CCC(C(N)=O)CC2)cn1,-7.33
5,COc1ccccc1CCNC(=O)N(C)C(C)CS(C)(=O)=O (stereo unspecified),24.3
6,CN(C)C(=O)c1ccccc1NC(=O)N[C@@H]1c2ccccc2C[C@@H]1O,0.722
7,O=C(c1cc(C2CC2)nc2onc(-c3ccccc3)c12)N1CC[C@H](O)C1,-4.91
8,O=C(c1cc(C2CC2)nc2onc(-c3ccccc3)c12)N1CC(O)C1,16.9
9,CC(C)(C)OC(=O)N[C@H]1CCN(c2cncc(Br)c2)C1,23.7
10,Cc1c(Br)cccc1CSc1nnc(CO)n1C,14
11,COC(=O)C(NC(=O)c1cc(C)ccc1C)c1cccnc1 (stereo unspecified),-0.114
12,COC(=O)C(NC(=O)c1cc(F)cc(F)c1)c1cccnc1 (stereo unspecified),-8.87
13,CCC(C)C(=O)N(Cc1ccccn1)C1CC1 (stereo unspecified),25.9
14,O=C(C1CCCN(c2nc3ccccc3cc2CO)C1)N1CCCC1 (stereo unspecified),20.7
15,Cc1ccc(CNC(CCO)C2CCCCC2)nc1 (stereo unspecified),-1.61
16,Cc1ncccc1CNC(CCO)C1CCCCC1 (stereo unspecified),1.16
17,O=C(CNC1(CCO)CCOCC1)Nc1ccc(F)cc1F,10.9
18,Cc1nc(CN2CCCCC2Cn2cccn2)nc2ccccc12 (stereo unspecified),-5.42
19,Cc1nc(C2(O)CCCNCC2)sc1CCOc1ccc(Cl)cc1 (stereo unspecified),31.6
20,c1ccc(CC2CCN(Cc3ccnc(-c4cccnc4)n3)CC2)cc1,-3.3
